Experimental findings from patent US4341784A, “Naphthyridine derivatives” (priority 1979, dated 1982) are described below.

The subject of data set [1] is Serratia marcescens IFO 3736. The data set can be described thus: In vitro antibacterial activity (MIC, agar dilution method). Type of data set: cell-based. As to conditions: IFO3736; Serratia marcescens IFO 3736; agar dilution; read-out: minimum inhibitory concentration (MIC). How it is done: (§1) The minimum inhibitory concentrations (MIC, μg/ml) of the following compounds in vitro were measured by the agar dilution method of [Chemotherapy, Vol. 22, No. 16, page 1126 (1974)].
(In general: In agar dilution, organisms are placed on agar that contains the substance at set levels.)

The subject of data set [2] is Staphylococcus aureus 209P JC-1. Described as above. To be noted: Staphylococcus aureus 209P JC-1; agar dilution; read-out: minimum inhibitory concentration (MIC). Type of data set: cell-based. How it is done: as §1
In data set [3] the test system is Pseudomonas aeruginosa No. 12. Described as above. To be noted: Pseudomonas aeruginosa No. 12; agar dilution; read-out: minimum inhibitory concentration (MIC). Type of data set: cell-based. Here is the method: as §1
The test system of a further data set is Escherichia coli P-140a. The description is as above. Type of data set: cell-based. As to conditions: P140A; Escherichia coli P-140a; agar dilution; read-out: minimum inhibitory concentration (MIC). How it is done: as §1
The test system of data set [4] is Streptococcus pyogenes 65A. Described as above. Type of data set: cell-based. As to conditions: Streptococcus pyogenes 65A; agar dilution; read-out: minimum inhibitory concentration (MIC). How it is done:
as §1

Data set [5] deals with Shigella flexneri 4a P-330. Described as above. Type of data set: cell-based. To be noted: 4AP330, read-out: minimum inhibitory concentration (MIC). How it is done:
as §1

The next data set deals with Proteus mirabilis P-2381. Described as above. Type of data set: cell-based. To be noted: P2381; Proteus mirabilis P-2381; agar dilution; read-out: minimum inhibitory concentration (MIC). How it is done:
as §1

Data set [6] deals with Pseudomonas aeruginosa Tsuchiijima. The description is as above. Type of data set: cell-based. To be noted: Pseudomonas aeruginosa Tsuchiijima; agar dilution; read-out: minimum inhibitory concentration (MIC). How it is done:
as §1

Another data set concerns Escherichia coli P-5101. The data set is described as above. Type of data set: cell-based. To be noted: P5101; Escherichia coli P-5101; agar dilution; read-out: minimum inhibitory concentration (MIC). Here is the method: as §1
Data set [7] relates to Staphylococcus aureus Smith. The data set is described as above. Type of data set: cell-based. As to conditions: Staphylococcus aureus Smith; agar dilution; read-out: minimum inhibitory concentration (MIC). How it is done: as §1
For data set [8], the system named is Escherichia coli NIHJ JC-2. The description is as above. Type of data set: cell-based. Here is the method: as §1
Data set [9] relates to Staphylococcus aureus No. 80. The data set is described as above. Type of data set: cell-based. How it is done: as §1
Data set [10] in a line: Acute toxicity in intravenous injection.

Read-outs that look alike come from different tables or passages of the source.

On to `CCn1cc(C(=O)O)c(=O)c2cc(F)c(N3CCC(NC)C3)nc21.Cl` (stereo not shown) [Compound 2, 1-Ethyl-6-fluoro-1,4-dihydro-7-(3-methylamino-1-pyrrolidinyl)-4-oxo-1,8-naphthyridine-3-carboxylic acid hydrochloride], for which the MIC was found to be 1.56 µg/mL in data set [1]; 0.78 µg/mL in data set [2]; 1.56 µg/mL in data set [3]; 0.1 µg/mL in the data set on Escherichia coli P-140a; 3.13 µg/mL in [4]; 0.1 µg/mL in data set [5]. For the same compound, the MIC in the data set with Proteus mirabilis P-2381 is 1.56 µg/mL; in [6], 0.78 µg/mL; with Escherichia coli P-5101, 0.2 µg/mL; in data set [7] it was 0.78 µg/mL; in [8] (Escherichia coli, NIHJJC2, read-out: minimum inhibitory concentration (MIC)) it was 0.2 µg/mL; in data set [9] (Staphylococcus aureus No. 80, agar dilution, read-out: minimum inhibitory concentration (MIC)), 0.78 µg/mL. In data set [10], the “acute toxicity in intravenous injection compared with Compound 1 (in words)” value is “lower acute toxicity in intervenous injection than Compound 1”.

`CCn1cc(C(=O)O)c(=O)c2cc(F)c(N3CCC(N)C3)nc21.Cl` (stereo not shown) [Compound 1, 7-(3-Amino-1-pyrrolidinyl)-1-ethyl-6-fluoro-1,4-dihydro-4-oxo-1,8-naphthyridine-3-carboxylic acid hydrochloride]: the MIC in [1] is 0.39 µg/mL; in data set [2], 0.2 µg/mL; in [3], 0.78 µg/mL; in the data set on Escherichia coli P-140a, below 0.05 µg/mL; in data set [4] it was 1.56 µg/mL; in [5], 0.1 µg/mL. Besides, the MIC turned out to be 0.39 µg/mL in the data set with Proteus mirabilis P-2381; 0.78 µg/mL in [6]; 0.1 µg/mL with Escherichia coli P-5101; 0.39 µg/mL in [7]; 0.2 µg/mL in data set [8] (NIHJJC2, Escherichia coli NIHJ JC-2, agar dilution, read-out: minimum inhibitory concentration (MIC)); 0.39 µg/mL in data set [9] (Staphylococcus aureus, NO.80, read-out: minimum inhibitory concentration (MIC)).
